Source: PubChem BioAssay AID2784 (Sanford-Burnham Center for Chemical Genomics, 2010)
Calls of active or inactive are those of the source. No rule for the calls is given here.

The compounds below were run against Apelin receptor (Homo sapiens) (UniProt P35414) (assay: apelin receptor inhibitors, concentration-response – cell-based, luminescence, uHTS hits, dose response (AID 2784)). Settings: APJ beta-arrestin recruitment, antagonist mode.
Apelin receptor (Homo sapiens), sequence (P35414 whole entry, looked up): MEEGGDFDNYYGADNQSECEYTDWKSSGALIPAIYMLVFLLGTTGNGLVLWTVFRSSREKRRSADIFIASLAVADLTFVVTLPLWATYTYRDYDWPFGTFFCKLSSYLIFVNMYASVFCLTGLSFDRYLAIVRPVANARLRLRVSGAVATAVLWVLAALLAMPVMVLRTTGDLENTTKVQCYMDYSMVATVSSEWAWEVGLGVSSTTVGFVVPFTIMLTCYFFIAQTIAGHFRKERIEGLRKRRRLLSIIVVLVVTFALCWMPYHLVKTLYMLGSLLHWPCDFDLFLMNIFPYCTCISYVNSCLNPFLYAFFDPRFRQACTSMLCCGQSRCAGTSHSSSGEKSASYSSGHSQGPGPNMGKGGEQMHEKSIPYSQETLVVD

| IC50 | Compound |
| --- | --- |
| inactive | CCOC(=O)C1=C(C)NC2=C(C(=O)CC(c3cccs3)C2)C1c1cccs1 (configuration not stated) |
| > 40 µM (inactive) | COc1ccc2c(c1)C(=O)[C@@H](O)[C@H](c1ccc(OC)c(Br)c1)O2 |
| > 40 µM (inactive) | CC1=Nc2ccccc2/C1=C/c1sc(=N)n(-c2nccs2)c1O |
| > 40 µM (inactive) | Cc1ccc(NS(=O)(=O)c2cc([N+](=O)[O-])ccc2N/N=C/c2sc(N3CCOCC3)nc2-c2ccccc2)c(C)c1 |
| 3.07 µM | COc1ccc2c(c1)C(=O)[C@H](O)[C@@H](c1ccc(OC)c(Br)c1)O2 |
| 10.6 µM | CCOC(=O)C1=NNC(C(=O)c2ccc(Cl)cc2)C1c1ccccc1 (configuration not stated) |
| > 40 µM (inactive) | CC1=NN(C(N)=S)C(=O)C1N=Nc1ccc([N+](=O)[O-])cc1 (configuration not stated) |
| 7.27 µM | COC(=O)C1NN=C(C(=O)c2ccc(Cl)cc2)C1c1ccc(OC)cc1 (configuration not stated) |
| inactive | CN(/N=C/c1cc([N+](=O)[O-])ccc1O)c1ccccc1 |
| > 40 µM (inactive) | CC1=NN(c2ccc(C)cc2)C(=O)/C1=C/c1ccc(-c2cc([N+](=O)[O-])ccc2O)o1 |
| > 40 µM (inactive) | Cn1c(O)c(N=Nc2nc(-c3ccccc3)cs2)c2ccccc21 |
| > 40 µM (inactive) | COc1ccc(NS(=O)(=O)c2cc([N+](=O)[O-])ccc2N/N=C\c2c(C)[nH]c3ccccc23)cc1 |
| 9.42 µM | Cc1ncc(CO)c(/C=N/Nc2ccc(C(F)(F)F)cn2)c1O |
| > 40 µM (inactive) | CCOCCOC(=O)C1=C(C)NC2=C(C(=O)CC(c3cccs3)C2)C1c1ccsc1 (configuration not stated) |
| > 40 µM (inactive) | O=C(O)c1ccccc1N=Nc1c(O)[nH]c2ccc([N+](=O)[O-])cc12 |
| inactive | O=C(CCCC(=O)Nc1cccc(Br)c1)N/N=C/c1cc([N+](=O)[O-])ccc1O |
| 4.18 µM | O=[N+]([O-])c1ccc(O)c(/C=N/Nc2ccc(Cl)nn2)c1 |
